Row | Structure (SMILES) | melting point [°C]
1 | O=S(=O)(c1ccc(C#Cc2cnn3c(C(F)F)cc(-c4cccc(C(F)(F)F)c4)nc23)s1)N(CCO)CCO [Example 264, 5-[7-Difluoromethyl-5-(3-trifluoromethyl-phenyl)-pyrazolo[1,5-a]pyrimidin-3-ylethynyl]-thiophene-2-sulfonic acid bis-(2-hydroxy-ethyl)-amide] | 174
2 | Cc1cc(-c2cc(C(F)F)n3ncc(C#Cc4ccc(S(=O)(=O)N5CCN(C)CC5)s4)c3n2)ccc1Cl [Example 255, 5-(4-Chloro-3-methyl-phenyl)-7-difluoromethyl-3-[5-(4-methyl-piperazine-1-sulfonyl)-thiophen-2-ylethynyl]-pyrazolo[1,5-a]pyrimidine] | 191
3 | NS(=O)(=O)c1ccc(C#Cc2ncn3c(C(F)F)cc(-c4ccc(C(F)(F)F)cc4)nc23)cc1 [Example 276, 4-[4-Difluoromethyl-2-(4-trifluoromethyl-phenyl)-imidazo[1,5-a]pyrimidin-8-ylethynyl]-benzenesulfonamide] | 282
4 | FC(F)(F)c1ccc(-c2cc(C(F)(F)F)n3ncc(C#Cc4ccccn4)c3n2)cc1 [Example 6, 3-Pyridin-2-ylethynyl-7-trifluoromethyl-5-(4-trifluoromethyl-phenyl)-pyrazolo[1,5-a]pyrimidine] | 158 to 159
5 | Cc1cc(C#Cc2cnn3c(C(F)F)cc(-c4ccc(C(F)(F)F)cc4)nc23)cnc1N [Example 142, 5-[7-Difluoromethyl-5-(4-trifluoromethyl-phenyl)-pyrazolo[1,5-a]pyrimidin-3-ylethynyl]-3-methyl-pyridin-2-ylamine] | 194 to 195
6 | FC(F)(F)c1ccc(-c2cc(C(F)(F)F)n3ncc(C#Cc4cnc(Cl)nc4)c3n2)cc1 [Example 182, 3-(2-Chloro-pyrimidin-5-ylethynyl)-7-trifluoromethyl-5-(4-trifluoromethyl-phenyl)-pyrazolo[1,5-a]pyrimidine] | 157 to 159
7 | CC(C)(CO)NS(=O)(=O)c1ccc(C#Cc2cnn3c(C(F)F)cc(-c4cccc(C(F)(F)F)c4)nc23)s1 [Example 170, 5-[7-Difluoromethyl-5-(3-trifluoromethyl-phenyl)-pyrazolo[1,5-a]pyrimidin-3-ylethynyl]-thiophene-2-sulfonic acid (2-hydroxy-1,1-dimethyl-ethyl)-amide] | 168
8 | Nc1ncc(C#Cc2cnn3c(C(F)F)cc(-c4ccc(C(F)(F)F)cc4)nc23)cn1 [Example 213, 5-[7-Difluoromethyl-5-(4-trifluoromethyl-phenyl)-pyrazolo[1,5-a]pyrimidin-3-ylethynyl]-pyrimidin-2-ylamine] | 242 to 243
9 | CC(C)(CO)NS(=O)(=O)c1cnc(C#Cc2cnn3c(C4CC4)cc(-c4ccc(Cl)cc4)nc23)s1 [Example 64, 2-[5-(4-Chloro-phenyl)-7-cyclopropyl-pyrazolo[1,5-a]pyrimidin-3-ylethynyl]-thiazole-5-sulfonic acid (2-hydroxy-1,1-dimethyl-ethyl)-amide] | 204 to 207
10 | O=S(=O)(O)c1cnc(C#Cc2cnn3c(C(F)(F)F)cc(-c4ccc(C(F)(F)F)cc4)nc23)s1 [Example 20, 2-[7-Trifluoromethyl-5-(4-trifluoromethyl-phenyl)-pyrazolo[1,5-a]pyrimidin-3-ylethynyl]-thiazole-5-sulfonic acid] | > 295
11 | Cc1cc(-c2ccc(Cl)cc2)nc2c(C#Cc3ccc(S(N)(=O)=O)cc3)cnn12 [Example 292, 4-[5-(4-Chloro-phenyl)-7-methyl-pyrazolo[1,5-a]pyrimidin-3-ylethynyl]-benzenesulfonamide] | 230 to 233
12 | NC(=O)c1cncc(C#Cc2cnn3c(C(F)(F)F)cc(-c4ccc(C(F)(F)F)cc4)nc23)c1 [Example 15, 5-[7-Trifluoromethyl-5-(4-trifluoromethyl-phenyl)-pyrazolo[1,5-a]pyrimidin-3-ylethynyl]-nicotinamide] | 285 to 287
13 | CC(C)(C)NS(=O)(=O)c1ccc(C#Cc2cnn3c(C(F)(F)F)cc(-c4ccc(C(F)(F)F)cc4)nc23)s1 [Example 109, 5-[7-Trifluoromethyl-5-(4-trifluoromethyl-phenyl)-pyrazolo[1,5-a]pyrimidin-3-ylethynyl]-thiophene-2-sulfonic acid tert-butylamide] | 226
14 | CC(C)(CO)NS(=O)(=O)c1cncc(C#Cc2cnn3c(C(F)(F)F)cc(-c4ccc(C(F)(F)F)cc4)nc23)c1 [Example 11, 5-[7-Trifluoromethyl-5-(4-trifluoromethyl-phenyl)-pyrazolo[1,5-a]pyrimidin-3-ylethynyl]-pyridine-3-sulfonic acid (2-hydroxy-1,1-dimethyl-ethyl)-amide] | 226 to 227
15 | FC(F)(F)c1ccc(-c2cc(C(F)(F)F)n3ncc(C#Cc4cccnc4C4CC4)c3n2)cc1 [Example 8, 3-(2-Cyclopropyl-pyridin-3-ylethynyl)-7-trifluoromethyl-5-(4-trifluoromethyl-phenyl)-pyrazolo[1,5-a]pyrimidine] | 202
16 | O=S(=O)(NCCN1CCOCC1)c1ccc(C#Cc2cnn3c(C(F)(F)F)cc(-c4ccc(C(F)(F)F)cc4)nc23)s1 [Example 158, 5-[7-Trifluoromethyl-5-(4-trifluoromethyl-phenyl)-pyrazolo[1,5-a]pyrimidin-3-ylethynyl]-thiophene-2-sulfonic acid (2-morpholin-4-yl-ethyl)-amide] | 219

Row | Structure (SMILES) | melting point [°C]
17 | CC(C)(CO)NS(=O)(=O)c1cccc(C#Cc2cnn3c(C(F)(F)F)cc(-c4ccc(Cl)cc4)nc23)c1 [Example 95, 3-[5-(4-Chloro-phenyl)-7-trifluoromethyl-pyrazolo[1,5-a]pyrimidin-3-ylethynyl]-N-(2-hydroxy-1,1-dimethyl-ethyl)-benzenesulfonamide] | 226 to 229
18 | CS(=O)(=O)Nc1ccc(C#Cc2cnn3c(C(F)(F)F)cc(-c4ccc(C(F)(F)F)cc4)nc23)cn1 [Example 216, N-{5-[7-Trifluoromethyl-5-(4-trifluoromethyl-phenyl)-pyrazolo[1,5-a]pyrimidin-3-ylethynyl]-pyridin-2-yl}-methanesulfonamide] | 261 to 263
19 | NS(=O)(=O)c1ccc(C#Cc2cnn3c(C(F)(F)F)cc(-c4ccc(Cl)c(Cl)c4)nc23)s1 [Example 89, 5-[5-(3,4-Dichloro-phenyl)-7-trifluoromethyl-pyrazolo[1,5-a]pyrimidin-3-ylethynyl]-thiophene-2-sulfonic acid amide] | 231 to 232
20 | Cc1cc(-c2cc(C(F)F)n3ncc(C#Cc4ccc(S(N)(=O)=O)cc4)c3n2)ccc1Cl [Example 173, 4-[5-(4-Chloro-3-methyl-phenyl)-7-difluoromethyl-pyrazolo[1,5-a]pyrimidin-3-ylethynyl]-benzenesulfonamide] | 237
21 | N#Cc1cc(-c2ccc(C(F)(F)F)cc2)cn2c(C#Cc3cnc(N)nc3)cnc12 [Example 227, 3-(2-Amino-pyrimidin-5-ylethynyl)-6-(4-trifluoromethyl-phenyl)-imidazo[1,2-a]pyridine-8-carbonitrile] | 290
22 | FC(F)(F)c1ccc(-c2cc(C(F)(F)F)n3ncc(C#Cc4cccnc4)c3n2)cc1 [Example 3, 3-Pyridin-3-ylethynyl-7-trifluoromethyl-5-(4-trifluoromethyl-phenyl)-pyrazolo[1,5-a]pyrimidine] | 187 to 188
23 | CC(C)(CO)NS(=O)(=O)c1cncc(C#Cc2cnn3c(C4CC4)cc(-c4ccc(Cl)cc4)nc23)c1 [Example 67, 5-[5-(4-Chloro-phenyl)-7-cyclopropyl-pyrazolo[1,5-a]pyrimidin-3-ylethynyl]-pyridine-3-sulfonic acid (2-hydroxy-1,1-dimethyl-ethyl)-amide] | 230 to 231
24 | CC(C)(O)c1ccc(C#Cc2cnn3c(C4CC4)cc(-c4ccc(Cl)cc4)nc23)cc1 [Example 300, 2-{4-[5-(4-Chloro-phenyl)-7-cyclopropyl-pyrazolo[1,5-a]pyrimidin-3-ylethynyl]-phenyl}-propan-2-ol] | 148 to 150
25 | CC(C)(CO)NS(=O)(=O)c1cccc(C#Cc2cnn3c(C(F)(F)F)cc(-c4ccc(C(F)(F)F)cc4)nc23)c1 [Example 4, N-(2-Hydroxy-1,1-dimethyl-ethyl)-3-[7-trifluoromethyl-5-(4-trifluoromethyl-phenyl)-pyrazolo[1,5-a]pyrimidin-3-ylethynyl]-benzenesulfonamide] | 201 to 204
26 | CS(=O)(=O)c1cccc(C#Cc2cnn3c(C(F)(F)F)cc(-c4ccc(C(F)(F)F)cc4)nc23)c1 [Example 40, 3-(3-Methanesulfonyl-phenylethynyl)-7-trifluoromethyl-5-(4-trifluoromethyl-phenyl)-pyrazolo[1,5-a]pyrimidine] | 214
27 | NS(=O)(=O)c1ccc(C#Cc2cnn3c(C4CC4)cc(-c4ccc(C(F)(F)F)cc4)nc23)cc1 [Example 76, 4-[7-Cyclopropyl-5-(4-trifluoromethyl-phenyl)-pyrazolo[1,5-a]pyrimidin-3-ylethynyl]-benzenesulfonamide] | 228 to 230
28 | CN(C)CCNS(=O)(=O)c1ccc(C#Cc2cnn3c(C(F)(F)F)cc(-c4cccc(C(F)(F)F)c4)nc23)s1 [Example 251, 5-[7-Trifluoromethyl-5-(3-trifluoromethyl-phenyl)-pyrazolo[1,5-a]pyrimidin-3-ylethynyl]-thiophene-2-sulfonic acid (2-dimethylamino-ethyl)-amide] | 197
29 | Cc1ncccc1C#Cc1cnn2c(C(F)(F)F)cc(-c3ccc(C(F)(F)F)cc3)nc12 [Example 12, 3-(2-Methyl-pyridin-3-ylethynyl)-7-trifluoromethyl-5-(4-trifluoromethyl-phenyl)-pyrazolo[1,5-a]pyrimidine] | 198
30 | NS(=O)(=O)c1ccc(C#Cc2cnn3c(C4CC4)cc(-c4ccc(Cl)cc4)nc23)cc1 [Example 63, 4-[5-(4-Chloro-phenyl)-7-cyclopropyl-pyrazolo[1,5-a]pyrimidin-3-ylethynyl]-benzenesulfonamide] | 225 to 228
31 | NS(=O)(=O)c1ccc(C#Cc2cnn3c(C(F)(F)F)cc(-c4cccc(C(F)(F)F)c4)nc23)s1 [Example 119, 5-[7-Trifluoromethyl-5-(3-trifluoromethyl-phenyl)-pyrazolo[1,5-a]pyrimidin-3-ylethynyl]-thiophene-2-sulfonic acid amide] | 250

From US8063048B2, “Acetylenyl-pyrazolo-pyrimidine derivatives” (Hoffmann-La Roche Inc., priority 2005, dated 2011)
